Earlier results, collected in paper PMC7553790 (The Journal of Experimental Medicine, 2020).
Where two headings read alike, the source gives them in different places.

Tested on: Aβ42
Conditions: cell-based studies

Row | Compound | IC50 (read-out: IC50 of Aβ42, ref Rogers et al., 2012) | IC50 (read-out: IC50 of decreasing Aβ42, ref Imbimbo et al., 2007)
1 | O=C(O)[C@H](CC1CCC1)c1cc(Cl)c(OCC(F)(F)F)c(-c2ccc(C(F)(F)F)cc2)c1 [EVP-0015962] | > 0.02 µM | –
2 | O=C(O)C1(c2ccc(-c3ccc(Cl)c(Cl)c3)c(F)c2)CC1 [CHF5074, 1-(3′,4′-Dichloro-2-fluoro[1,1′-biphenyl]-4-yl)-cyclopropanecarboxylic acid] | – | 3.6 µM
